These are literature values, as cited in patent US20130317456A1, “Transdermal Delivery Systems” (Durect Corporation, priority 2006, published 2013).

The conditions of the data set: octanol/water partition coefficient.

As to `Cc1cccc(C)c1NC(=O)C1CCCCN1C` (centres unmarked) [Mepivacaine], the “log P” value is reported as “around 1.95”. For the compound `CCCN1CCCC[C@H]1C(=O)Nc1c(C)cccc1C` [Ropivacaine], the “log P” value is recorded as “around 2.9”.
